pIC50: −log10 of the molar value.
What was measured:
[1] = biological target: human JAK1 (a.a. 837-1142) (Homo sapiens, UniProt P23458); assay: In vitro JAK kinase assay (HTRF), JAK1; assay type: biochemical; settings: 1 mM ATP
Procedure: (§1) The catalytic activity of JAK1, JAK2 or JAK3 was assayed by measuring the phosphorylation of a biotinylated peptide. The phosphorylated peptide was detected by homogenous time resolved fluorescence (HTRF). IC5os of compounds are measured for each kinase in the 40 microL reactions that contain the enzyme, ATP and 500 nM peptide in 50 mM Tris (pH 7.8) buffer with 100 mM NaCl, 5 mM DTT, and 0.1 mg/mL (0.01%) BSA. […] Reactions are carried out at room temperature for 1 hour and then stopped with 20 μL 45 mM EDTA, 300 nM SA-APC, 6 nM Eu-Py20 in assay buffer (Perkin Elmer, Boston, MA). Binding to the Europium labeled antibody takes place for 40 minutes and HTRF signal was measured on a Fusion plate reader (Perkin Elmer, Boston, MA).

JAK2 (a.a. 828-1132) = JAK2 (a.a. 828-1132) (Homo sapiens (Human), UniProt O60674); assay: In vitro JAK kinase assay (HTRF), JAK2, for JAK2/JAK1 ratio; assay type: biochemical; settings: IC50 ratio at 1 mM ATP
Procedure: as §1

CSU skin = assay: Ex vivo culture of CSU lesional skin biopsies, RNA-seq gene expression; assay type: cell-based, human
Procedure: Full-thickness cutaneous skin biopsies were obtained from active disease, untreated, urticaria patients. A single 4mm-punch biopsy was obtained from the same lesion for each patient and longitudinally divided into two pieces. Biopsies were cultured for 24 hours in KBM media+CaCl2, with or without compound (i.e., Compound 1) or DMSO (control). After 24 hours, tissue RNA was isolated for subsequent analysis. RNA extracts were quantified with the Qubit fluorometer (Invitrogen) and quality assessed by TapeStation automated electrophoresis (Agilent Technologies). Total RNA (250 ng) treated with amplification-grade DNase I (Invitrogen) were enriched for non-ribosomal RNA using the NEBNext rRNA Depletion Kit v2 (New England BioLabs). Library preparation was performed with the NEBNext Ultra II Directional RNA Library Prep Kit for Illumina (New England BioLabs) following the manufactures protocol for library preparation of intact or partially degraded RNA (section 2). For comparability, the same protocol was used for all samples. RNA-seq libraries were pooled and paired-end sequencing was performed on the NextSeq 2000 (Illumina) with an average sequencing depth of 200 M reads. FASTQ files were processed with Nextflow RNASeq pipeline (v. 22.10.1). […] The effects of JAK1 inhibition with Compound 1 on DEGs identified in the prior analysis were further evaluated. […]

Chain of JAK2 (a.a. 828-1132) (O60674 828-1132): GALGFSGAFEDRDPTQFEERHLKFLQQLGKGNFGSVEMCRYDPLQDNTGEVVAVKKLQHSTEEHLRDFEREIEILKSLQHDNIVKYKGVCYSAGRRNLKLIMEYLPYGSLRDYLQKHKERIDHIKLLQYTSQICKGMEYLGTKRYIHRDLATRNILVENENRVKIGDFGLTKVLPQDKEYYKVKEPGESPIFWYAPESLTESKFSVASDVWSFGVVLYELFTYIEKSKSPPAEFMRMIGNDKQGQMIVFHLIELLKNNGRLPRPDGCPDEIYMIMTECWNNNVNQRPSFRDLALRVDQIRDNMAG

pIC50 [1]: > 8.00
JAK2/JAK1 (JAK2 (a.a. 828-1132)): >10
SMILES: N#CCC1(n2cc(-c3ncnc4[nH]ccc34)cn2)CN(C2CCN(C(=O)c3ccnc(C(F)(F)F)c3F)CC2)C1 [compound 1, {1-{1-[3-Fluoro-2-(trifluoromethyl)isonico-tinoyl]piperidin-4-yl}-3-[4-(7H-pyrrolo[2,3-d]pyrimidin-4-yl)-1H-pyrazol-1-yl]azetidin-3-yl}acetonitrile]
PTX3 expression (CSU skin; CSU skin, 24 hour ex vivo treatment, FIG. 1): dramatically reduced
CCL2, S100A8, SELE and PTX3 expression (CSU skin; cultured CSU skin, 24 hours, vs DMSO control): altered expression

Reference: patent US20240058343A1, “TREATMENT OF URTICARIA USING JAK INHIBITORS” (Incyte Corporation, priority 2022, published 2024)
